Laboratory results from patent US10870660B2, “Nitrogen-containing condensed ring compounds having dopamine D3 antagonistic effect” (Shionogi & Co., Ltd., priority 2016, dated 2020).

Experiments:
Male Crl: WI rats = experiment: Effect of suppressing impulsivity in rat (T-maze delayed large reward choice, i.p.); format: in vivo; conditions: 3 mg/kg, daily over 5 days, tested 40 min after administration, compared with vehicle control group
Excerpt: Male Crl: WI rats were obtained at post-natal day 14 and weaning was occurred at post-natal day 21. Starting from then, the rats were housed 2-3 per cage and food-restricted (Day 1). The feeding amount was 5 g/day at post-natal day 21-28 (Day 1-8), 8.5 g/day at post-natal day 29-32 (Day 9-12), and 10 g/day at post-natal day 33-36 (Day 13-16), preventing their body weight from being 60% or less of the weight of the free feeding rats.
4 days after the beginning of the food restriction (Day 5), pellets were put on goal boxes located in the left-side and the right-side of T-maze. Then, the rats were allowed to freely explore the T-maze-box for 5 min to get habituated to the T-maze box and learn that the pellets were put on the goal boxes located in the left-side and the right-side. For 4 consecutive days from the next day (Day 6-9), one pellet (20 mg×1) was put in one side of the goal box as a small reward, and 5 pellets (20 mg×5) were put in the other side of the goal box as a large reward, and the rats were trained to learn their positions. Each rat underwent 10-trial per day trainings. […] The evaluations of the drug efficacy were started on Day 12. The compounds of the present invention were dissolved in distilled water containing 3% of 1 mol/L hydrochloric acid and administered i.p. to the trained rats to attain the dose of 1, 3 or 10 mg/kg. […]

[1] = biological target: human recombinant dopamine D2 receptor (Homo sapiens (Human), UniProt P14416); experiment: Test of binding inhibition for the human dopamine D2 receptor ([3H]-Metylspiperone SPA binding); conditions: [3H]-Metylspiperone 1.2 nM, Jump-In HEK cell membranes, read-out: hD2_Ki
Chain of human recombinant dopamine D2 receptor (P14416 whole entry): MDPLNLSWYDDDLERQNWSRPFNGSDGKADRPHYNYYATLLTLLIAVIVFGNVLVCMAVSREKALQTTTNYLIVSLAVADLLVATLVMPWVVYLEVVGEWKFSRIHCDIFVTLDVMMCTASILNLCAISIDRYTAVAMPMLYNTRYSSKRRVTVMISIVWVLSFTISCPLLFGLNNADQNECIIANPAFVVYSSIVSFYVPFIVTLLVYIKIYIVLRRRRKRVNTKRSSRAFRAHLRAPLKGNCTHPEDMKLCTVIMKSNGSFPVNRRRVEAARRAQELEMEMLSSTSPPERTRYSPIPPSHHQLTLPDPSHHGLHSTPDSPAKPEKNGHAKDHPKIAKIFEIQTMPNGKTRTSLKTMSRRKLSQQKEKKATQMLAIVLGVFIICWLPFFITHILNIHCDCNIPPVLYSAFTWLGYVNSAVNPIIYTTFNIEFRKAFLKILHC
Procedure, shortened: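 Scintillation proximity binding with HEK membranes expressing human D2 receptor (2 μg/well), 1.2 nM [3H]-methylspiperone, in Tris-HCl pH 7.4 with NaCl, MgCl2, KCl and CaCl2; 120 min at 25° C.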

[2] = biological target: human recombinant dopamine D3 receptor (Homo sapiens (Human), UniProt P35462); experiment: Test of binding inhibition for the human dopamine D3 receptor ([3H]-Metylspiperone SPA binding); conditions: [3H]-Metylspiperone 2 nM, Jump-In HEK cell membranes, read-out: hD3_Ki
Chain of human recombinant dopamine D3 receptor (P35462 whole entry): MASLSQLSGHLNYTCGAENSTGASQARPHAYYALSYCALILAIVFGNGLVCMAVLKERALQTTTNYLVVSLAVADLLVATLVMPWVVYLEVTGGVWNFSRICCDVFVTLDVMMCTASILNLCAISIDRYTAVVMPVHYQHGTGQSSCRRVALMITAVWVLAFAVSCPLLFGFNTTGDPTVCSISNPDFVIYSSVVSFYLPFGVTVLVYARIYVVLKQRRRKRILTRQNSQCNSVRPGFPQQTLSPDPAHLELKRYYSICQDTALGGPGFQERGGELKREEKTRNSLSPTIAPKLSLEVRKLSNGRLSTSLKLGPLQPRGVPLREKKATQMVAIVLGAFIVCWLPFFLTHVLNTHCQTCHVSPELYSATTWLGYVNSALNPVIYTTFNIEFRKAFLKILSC

Row | SMILES | Ki [1] | Ki [2] | number of choices of the large reward during total 50 trials of 5 days (Male Crl: WI rats)
1 | O=C(N[C@H]1CC[C@H](CCN2CCc3sc(OCC(F)F)nc3C2)CC1)c1cccc2ncccc12 [Compound I-085] | – | – | significantly increased
2 | Cc1cnc(CC(=O)N[C@H]2CC[C@H](CCN3CCc4nc(OCC(F)(F)F)sc4CC3)OC2)o1 [III-220] | 1100 nM | 0.78 nM | –
3 | Cn1cc2c(C(=O)N[C@H]3CC[C@H](CCN4CCc5sc(CCC(F)(F)F)nc5C4)CC3)cccc2n1 [III-452] | 1000 nM | 0.29 nM | –
4 | Cc1ncc(CC(=O)N[C@H]2CC[C@H](CCN3CCc4ccc(N5CC(F)(F)C5)nc4CC3)CC2)s1 [II-066] | > 1900 nM | 0.84 nM | –
5 | Cc1nc(CC(=O)N[C@H]2CC[C@H](CCN3CCc4nc(CCC(F)(F)F)sc4CC3)CC2)no1 [II-019] | > 1800 nM | 2.3 nM | –
6 | O=C(N[C@H]1CC[C@H](CCN2CCc3cnc(CC4CC4)nc3C2)CC1)c1cccc2ncccc12 [Compound I-133] | > 1700 nM | 7.9 nM | –
7 | CC1c2nc(OCC(F)F)sc2CCN1CC[C@H]1CC[C@H](NC(=O)c2cccc3ncccc23)CC1 (some centres unmarked) [Compound I-101] | > 1700 nM | 8.1 nM | –
8 | Cn1cc2c(C(=O)N[C@H]3CC[C@H](CCN4CCc5nc(OC6CC(F)(F)C6)sc5CC4)CC3)cccc2n1 [III-244] | > 1900 nM | 0.24 nM | –
9 | Cc1nc(CC(=O)N[C@H]2CC[C@H](CCN3CCc4ccc(OCC(F)(F)F)nc4CC3)OC2)no1 [III-001] | 1100 nM | 0.5 nM | –

Further lines, with some results ahead:

Row | Ki [1] | Ki [2] | SMILES | number of choices of the large reward during total 50 trials of 5 days (Male Crl: WI rats)
10 | 640 nM | 0.99 nM | Cn1cc(CC(=O)N[C@H]2CC[C@H](CCN3CCc4ccc(OCC(F)(F)F)nc4CC3)OC2)cn1 [III-230] | –
11 | 140 nM | 0.012 nM | CN1Cc2c(C(=O)N[C@H]3CC[C@H](CCN4CCc5ccc(OCC(C)(F)F)nc5CC4)CC3)cccc2C1=O [III-024] | –
12 | 230 nM | 0.048 nM | CCn1c(C(=O)N[C@H]2CC[C@H](CCN3CCc4ccc(OCC(F)(F)F)nc4CC3)CC2)cccc1=O [II-081] | –
13 | 400 nM | 0.11 nM | Cn1cc(CC(=O)N[C@H]2CC[C@](F)(CCN3CCc4ccc(OCC(F)(F)F)nc4CC3)CC2)cn1 [III-102] | –
14 | 170 nM | 0.24 nM | Cn1cc2c(C(=O)N[C@H]3CC[C@H](CCN4CCc5sc(OCC(C)(F)F)nc5C4)CC3)cccc2n1 [III-441] | –
15 | 480 nM | 0.25 nM | Cc1ncc(CC(=O)N[C@H]2CC[C@H](CCN3CCc4cc(C)c(OCC(F)F)nc4CC3)OC2)s1 [III-008] | –
16 | 430 nM | 0.085 nM | Cc1ncc(CC(=O)N[C@H]2CC[C@H](CCN3CCc4ccc(OCC(F)F)nc4CC3)CC2)s1 [II-005] | –
17 | 570 nM | 0.43 nM | Cc1ncc(OCC(=O)N[C@H]2CC[C@](F)(CCN3CCc4nc(OCC(F)(F)F)sc4CC3)CC2)cn1 [III-254] | –
18 | 670 nM | 0.81 nM | Cc1ncc(OCC(=O)N[C@H]2CC[C@H](CCN3CCc4nc(OCC(F)(F)F)sc4CC3)OC2)cn1 [III-165] | –
